In publication PMC6385242, “Identification and characterization of a factor Va-binding site on human prothrombin fragment 2” (Scientific Reports, 2019):

Legend:
[1] = test system: F2 (prothrombin fragment 2); experiment: HSQC NMR of 15N-labeled F2 with thrombin or thrombin-derived peptide; type: binding, human; conditions: F2:peptide ratio as printed
Description: Uniform ^15N and ^13C/^15N isotopic labeling of F2 was achieved as described previously. Once labeled, F2 preparations prepared and pH adjusted, 25 μL of D2O was added to the protein solution to provide the NMR deuterium lock signal. For the titration experiments, small aliquots of the FVa-HC or FPRck-thrombin, both in 2 mM HEPES, 50 mM sodium phosphate buffer, pH 7, were added to samples of ^15N-labeled F2 up to a molar ratio of ~10:1. […]
All NMR experiments were carried out at 35° C on a Bruker Avance500 or an Avance800 spectrometer equipped with triple-resonance (^1H, ^13C, and ^15N) and three-axis gradient probes. Two-dimensional and three-dimensional NMR data collected for ^15N- and ^13C/^15N-labeled F2 included ^1H-^15N HSQC, HNCO, HN(CA)CO, HNCA, HN(CO)CA, CBCA(CO)NH and HNCACB[57]–[59]. Water suppression was achieved using the WATERGATE method with a 3:9:19 selective pulse incorporated in all the three-dimensional pulse sequences. […]
synthesized a peptide corresponding to residues 91- 101 of human thrombin with two cysteine residues added to form a disulfide bond between the N- and C-terminal en ds of the p eptide (s ee Experimental Procedures). […] Potential binding of the thrombin- derived peptide with F2 was monitored by the 1H-15N HSQC spectra of 15N-labeled F2 with a F2:peptide ratio of 3:1. […]

[2] = target: T1, prothrombinase (FXa/FVa/PCPS), prothrombin activation (Homo sapiens, UniProt P00742+P12259); experiment: Relative rate of prothrombin activation with F2-derived peptides (screen, Fig. S1); type: biochemical; conditions: peptide 0, 50, 200, 500 μM; 300 nM prothrombin, 5 mM CaCl2, 3 μM DAPA, 50 μM PCPS, 5 nM FVa, 0.05 nM FXa
T1 construct: purchased Haematologic Technologies, Inc (FXa, FVa); Enzyme Research Laboratories (prothrombin)
T1 sequence (P12259 29-737 limits assumed): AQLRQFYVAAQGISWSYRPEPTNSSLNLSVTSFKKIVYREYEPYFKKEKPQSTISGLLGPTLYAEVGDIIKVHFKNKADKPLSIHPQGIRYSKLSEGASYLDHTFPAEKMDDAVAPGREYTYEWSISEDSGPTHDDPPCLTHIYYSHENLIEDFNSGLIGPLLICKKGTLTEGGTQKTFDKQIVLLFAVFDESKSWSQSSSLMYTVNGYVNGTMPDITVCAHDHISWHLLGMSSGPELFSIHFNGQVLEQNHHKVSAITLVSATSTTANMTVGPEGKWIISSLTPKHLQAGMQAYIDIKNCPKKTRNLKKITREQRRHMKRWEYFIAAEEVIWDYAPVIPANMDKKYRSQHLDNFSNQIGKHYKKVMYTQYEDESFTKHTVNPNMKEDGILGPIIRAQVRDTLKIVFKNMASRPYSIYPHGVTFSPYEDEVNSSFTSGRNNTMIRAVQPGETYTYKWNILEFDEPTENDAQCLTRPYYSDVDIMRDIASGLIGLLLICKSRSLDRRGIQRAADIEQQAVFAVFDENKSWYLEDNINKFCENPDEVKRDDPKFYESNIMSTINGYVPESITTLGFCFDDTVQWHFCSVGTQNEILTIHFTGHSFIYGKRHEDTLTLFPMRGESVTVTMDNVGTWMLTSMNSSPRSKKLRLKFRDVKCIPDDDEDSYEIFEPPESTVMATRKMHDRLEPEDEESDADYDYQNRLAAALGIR
T1 sequence (P12259 1574-2224 limits assumed): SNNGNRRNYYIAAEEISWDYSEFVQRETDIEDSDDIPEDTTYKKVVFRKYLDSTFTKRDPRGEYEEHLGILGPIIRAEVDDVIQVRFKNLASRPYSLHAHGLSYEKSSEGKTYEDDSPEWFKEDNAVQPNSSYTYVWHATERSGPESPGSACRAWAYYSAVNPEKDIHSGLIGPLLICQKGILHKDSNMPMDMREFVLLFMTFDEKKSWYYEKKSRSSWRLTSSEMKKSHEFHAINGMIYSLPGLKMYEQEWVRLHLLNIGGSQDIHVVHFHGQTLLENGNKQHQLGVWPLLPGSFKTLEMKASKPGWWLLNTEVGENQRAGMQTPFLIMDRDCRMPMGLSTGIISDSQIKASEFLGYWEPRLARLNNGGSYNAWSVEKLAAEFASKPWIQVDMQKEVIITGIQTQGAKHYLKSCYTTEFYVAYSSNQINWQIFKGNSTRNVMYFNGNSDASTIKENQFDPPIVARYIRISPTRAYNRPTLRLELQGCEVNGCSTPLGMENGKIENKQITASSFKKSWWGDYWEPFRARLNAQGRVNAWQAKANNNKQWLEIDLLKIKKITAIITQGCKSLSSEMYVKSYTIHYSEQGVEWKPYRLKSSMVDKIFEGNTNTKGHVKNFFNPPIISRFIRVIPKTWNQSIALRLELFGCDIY
T1 sequence (P00742 41-179 partner limits assumed): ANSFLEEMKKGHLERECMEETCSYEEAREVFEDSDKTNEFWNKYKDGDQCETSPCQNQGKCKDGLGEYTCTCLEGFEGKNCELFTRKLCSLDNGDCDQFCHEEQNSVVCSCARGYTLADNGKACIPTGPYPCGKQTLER
T1 sequence (P00742 235-488 partner limits assumed): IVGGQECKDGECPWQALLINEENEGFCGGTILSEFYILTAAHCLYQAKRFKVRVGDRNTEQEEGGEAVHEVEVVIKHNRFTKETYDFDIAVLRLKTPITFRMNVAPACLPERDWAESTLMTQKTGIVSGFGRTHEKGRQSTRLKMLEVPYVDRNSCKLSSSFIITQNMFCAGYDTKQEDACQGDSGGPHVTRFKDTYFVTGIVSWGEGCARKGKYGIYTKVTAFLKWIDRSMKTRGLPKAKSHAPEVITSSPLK
Description: (§1) Reactions were started with addition of FXa (0.1 nM), and monitored in SpectraMax Gemini fluorescence plate reader (Molecular Devices, Sunnyvale, California) at excitation and emission wavelengths of 280 nm and 545 nm, respectively, with a 530 nm emission cut off filter in the emission beam at 25 °C. In the absence of FVa, reactions were carried out as described above; however, the reactions were started with the addition of 20 nM FXa. The Ki values were estimated using the Cheng-Prusoff equation (IC50 = [1 + ([S]/KM)] Ki) based on the IC50 values obtained by nonlinear regression of a rectangular hyperbola, whereby [S] is the prothrombin concentration and KM is the Michaelis constant of prothrombinase for prothrombin determined in a separate experiment as described previously.
Figure S1. Relative rate of prothrombin activation in the presence of each of the peptides at various concentrations. Initial rates of prothrombin activation were determined from reactions containing 300 nM prothrombin. 5 mM CaCl2, 3 μM DAPA, 50 μM PCPS, 5 nM FVa and 0.05 nM FXa. Relative rates of prothrombin activation are shown for each concentration of peptide at […]
(1 picture or pasted object on this page, not shown here)

[3] = test system: FXa/PCPS, prothrombin activation; experiment: Inhibition of FXa-mediated prothrombin activation by F2-derived peptides in the absence of FVa; type: biochemical, human; conditions: 300 nM prothrombin, 5 mM CaCl2, 5 μM DAPA, 50 μM PCPS, 20 nM FXa
Description: Figure 3 Inhibition of FXa-mediated prothrombin activation by synthetic peptides derived from F2. […] Reactions were started by addition of 20 nM FXa. […] Reactions were initiated by addition of 0.1 nM FXa. Non-linear regression analysis was carried out to determine the IC50 and the apparent Ki was calculated using the Cheng-Prusoff equation.
as §1

prothrombinase = conditions: cited from earlier work
From the text: It has been widely accepted that FVa alone increases the rate of thrombin generation by 3 orders of magnitude while the membrane surface alone increases the catalytic efficiency of thrombin generation by 2 orders of magnitude, which together increases its catalytic efficiency by 5 orders of magnitude. These individual contributions of the prothrombinase components toward overall thrombin generation, however, were not observed in our experiments (Table 1). […] The 5-orders of magnitude ...

[4] = pH 7.4
[5] = test system: F2 (prothrombin fragment 2); conditions: thrombin/F2 molar ratios 1:30 to 1:10; clusters Asp68–Lys81 and Ala96–Asp108; ref (9) Koutychenko, A. (2002); cited from earlier work
From the text: page 3: plasma-derived material, indicating purity and functional integrity of the recombinant F2 protein (9). […] Not abl y, there were two upfield -shifted meth yl proton resonances, which are common for a conserved Leu residue in all kringle domains (10 –12) .

## CH91PRYNWRENLDR101C (disulfide) [thrombin-derived peptide, residues 91-101 in the B-chain of human thrombin with two Cys residues added, cyclic]
[1]
  chemical shift changes in 15N-F2 versus intact thrombin: smaller chemical shift changes

## DGLDEDSDRAIEGR [F2P8, F2-derived peptide, prothrombin residues 258-271]
[2]
  dose-dependent inhibition of prothrombin activation: inhibited prothrombin activation in a dose-dependent manner
[3]
  inhibition of prothrombin activation in the absence of FVa: inhibited prothrombin activation

## DLNYS*EEAVEEETG [F2P7, F2-derived peptide, prothrombin residues 244-257, cysteine changed to serine]
[2]
  dose-dependent inhibition of prothrombin activation: did not

## EGSSVNLSPPLE [F2P1, F2-derived peptide, prothrombin residues 157-168]
[2]
  dose-dependent inhibition of prothrombin activation: inhibited prothrombin activation in a dose-dependent manner
[3]
  inhibition of prothrombin activation in the absence of FVa: inhibited prothrombin activation

## FVa: factor Va, protein cofactor of prothrombinase
prothrombinase
  increase in rate of thrombin generation by FVa alone: 3 orders of magnitude

## LAWASAQAKALSKH [F2P4]
[4]
  solubility: not soluble

## QDFNSAVQLVEN [F2P5]
[4]
  solubility: not soluble

## YVAGKPGDFGY [F2P6, F2-derived peptide, prothrombin residues 232-242]
[2]
  dose-dependent inhibition of prothrombin activation: did not

## thrombin
[5]
  perturbed HSQC peaks of 15N-F2: two major clusters
